US20170143835A1, “SUBSTITUTED ANIONIC COMPOUNDS CONSISTING OF A BACKBONE MADE UP OF A DISCRETE NUMBER OF SACCHARIDE UNITS” (ADOCIA, priority 2012, published 2017)

How the values were obtained:
serum albumin (BSA) = serum albumin (BSA) (Bos taurus, UniProt P02769); assay: Fluorescence test for interaction with albumin; type: binding, bovine; conditions: for Result F/F0 <0.5: compound/BSA weight ratio 1, excitation 280 nm, emission 350 nm; for Result F/F0 <0.5 / Result F/F0 <0.85: BSA 0.5 mg/ml, PBS pH 7.4
Sequence of serum albumin (BSA) (P02769 25-607): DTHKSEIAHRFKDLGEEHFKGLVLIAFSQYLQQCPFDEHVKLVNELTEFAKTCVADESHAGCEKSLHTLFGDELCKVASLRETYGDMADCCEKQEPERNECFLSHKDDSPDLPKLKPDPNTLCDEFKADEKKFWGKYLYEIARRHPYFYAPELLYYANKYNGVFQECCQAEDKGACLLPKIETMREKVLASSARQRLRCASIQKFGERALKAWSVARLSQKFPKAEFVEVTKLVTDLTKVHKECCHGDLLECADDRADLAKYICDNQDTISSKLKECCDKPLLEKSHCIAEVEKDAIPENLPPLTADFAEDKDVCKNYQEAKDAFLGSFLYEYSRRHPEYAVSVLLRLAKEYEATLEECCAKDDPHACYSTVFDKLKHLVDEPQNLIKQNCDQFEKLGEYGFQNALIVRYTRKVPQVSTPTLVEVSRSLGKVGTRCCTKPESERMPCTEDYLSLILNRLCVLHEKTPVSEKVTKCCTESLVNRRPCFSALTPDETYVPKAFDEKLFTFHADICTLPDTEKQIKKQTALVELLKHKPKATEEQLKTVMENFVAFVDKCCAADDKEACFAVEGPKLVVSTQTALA
Protocol: The test carried out is a “fluorescence” test with albumin, which makes it posible, by measuring the variations in fluorescence of albumin, to verify whether an interaction exists between the compound tested and albumin.
The compound/albumin solutions are prepared from stock solutions of compounds and of serum albumin (BSA) by mixing the appropriate volumes in order to obtain a fixed BSA concentration at 0.5 mg/ml and compound/BSA weight ratios of 1, 5 and 10. These solutions are prepared in a PBS buffer at pH 7.4.
200 μl of the various compound/BSA solutions are introduced into a 96-well plate. The fluorescence measurements are carried out at room temperature (20° C.) with an EnVision® fluorescence spectrometer (PerkinElmer). The excitation wavelength is 280 nm and the emission wavelength is 350 nm. This corresponds to the fluorescence of the tryptophan residues of albumin (Ruiz-Peña M. et al., M, A. Physico-chemical studies of molecular interactions between non-ionic surfactants and bovine serum albumin, Colloids Surf. B Biointerfaces 2010, 75, 282-289). The F (compound/BSA)/F0 (BSA alone) ratio makes it possible to evaluate the interaction between the compound and albumin. If this ratio is less than 1, this means that the compound induces partial quenching of the albumin fluorescence linked to a change in environment of the tryptophan residues. This change reflects an interaction between the compound and albumin. It was verified, as a control, that, for all the compounds tested, the fluorescence of the compound alone is negligible considering the fluorescence of albumin (fluorescence (compound) <2% fluorescence (albumin)).

lysozyme = molecular target: T1, lysozyme (Gallus gallus, UniProt P00698); assay: Turbidity measurement assays of compound/lysozyme solutions; type: physicochemical; conditions: for Turbidity of the solutions at the molar ratio 0.1: compound/lysozyme molar ratio 0.1; for Turbidity of the solutions at the molar ratio 0.1 / Turbidity of the solutions at the molar ratio 0.5: histidine buffer pH 6.2, NaCl, HACH 2100AN turbidity meter; for Turbidity of the solutions at the molar ratio 0.5: compound/lysozyme molar ratio 0.5; for turbidity of the compound/lysozyme solution compared with the counterexample/lysozyme solutions: whatever the ratio
T1 construct: purchased Sigma-Aldrich L6876
T1 sequence (P00698 19-147): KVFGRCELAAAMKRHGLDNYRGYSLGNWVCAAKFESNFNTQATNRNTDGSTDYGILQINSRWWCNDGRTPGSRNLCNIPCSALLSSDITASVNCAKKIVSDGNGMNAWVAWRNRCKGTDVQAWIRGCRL
Protocol: The turbidity of solutions in which a “model” protein, lysozyme and either a compound according to the invention or a counterexample compound are brought together is analyzed in the compound/lysozyme molar ratios of 0, 0.1 and 0.5.
The following solutions are prepared beforehand: histidine buffer solution, pH 6.2±0.1, at 194 mM (30 mg/ml), sodium chloride (NaCl) solution at 5017 mM (293 mg/ml), solution of lysozyme (Sigma-Aldrich, Ref L6876, CAS#12650-88-3) at […] ([…]), and solutions of each of the test products (pH 6.2±0.1), i.e. compounds according to the invention and counterexamples.
For each of the solutions of compounds to be prepared, 3 ml of an aqueous solution of compound are adjusted to pH 6.2±0.1 using 50±25 μl of a 0.1N hydrochloric acid (HCl) solution.
The test solutions at the compound/lysozyme molar ratios: 0, 0.1 and 0.5 are then prepared as follows.
The sodium chloride (NaCl) solution at 5017 mM, the histidine buffer solution at 194 mM and then the solution of compound are successively added to water, which results in a mixture which is homogenized on a roller mixer (Stuart Roller Mixer SRT9D) for 1 minute.
The lysozyme solution is, finally, added and then the final mixture is homogenized on the roller mixer for 1 minute.
The turbidity (expressed in NTU) for each of the final test solutions is measured using a HACH 2100AN turbidity meter.
The turbidity of the compound 1/lysozyme solution is analyzed in comparison with that of the counterexample A1/lysozyme and counterexample A2/lysozyme solutions. The turbidity of the compound 13/lysozyme solution is analyzed in comparison with that of the counterexample B1/lysozyme and counterexample B2/lysozyme solutions.

## Sodium maltotriosesuccinate Functionalized with dilauryl aspartate [Compound 22]
Serum albumin (BSA)
  Result F/F0 <0.5: YES

## Sodium maltotriosemethylcarboxylate Functionalized with 2-aminoethyl dodecanoate [Compound 29]
Serum albumin (BSA)
  Result F/F0 <0.5: YES

## Sodium maltotriosemethylcarboxylate Functionalized with 2-[(2octanoylamino-6-octanoylamino)hexanoylamino]ethanamine [Compound 27]
Serum albumin (BSA)
  Result F/F0 <0.5: YES

## Sodium maltotriosemethylcarboxylate Functionalized with L-phenylalanine [Compound 1]
lysozyme
  Turbidity of the solutions at the molar ratio 0.1: 55 NTU
  Turbidity of the solutions at the molar ratio 0.5: 4.8 NTU
  turbidity of the compound/lysozyme solution compared with the counterexample/lysozyme solutions: lower

## Sodium maltotriosemethylcarboxylate Functionalized with 3,7-dimethyloctanoyl phenylalaninate [Compound 30]
Serum albumin (BSA)
  Result F/F0 <0.5: YES

## Sodium maltotriosemethylcarboxylate Functionalized with N-(2-aminoethyl)dodecanamide [Compound 21]
Serum albumin (BSA)
  Result F/F0 <0.5: YES

## Sodium maltotriosemethylcarboxylate Functionalized with decanoyl glycinate [Compound 23]
Serum albumin (BSA)
  Result F/F0 <0.5: YES

## Sodium maltotriosemethylcarboxylate Functionalized with L-phenylalanine [Compound 2]
Serum albumin (BSA); compound/BSA weight ratio 5
  Result F/F0 <0.85: YES
Serum albumin (BSA); compound/BSA weight ratio 10
  Result F/F0 <0.85: YES
Serum albumin (BSA); compound/BSA weight ratio of 5
  fluorescence ratio F/F0: < 0.85
Serum albumin (BSA); compound/BSA weight ratio of 10
  fluorescence ratio F/F0: < 0.85

## Sodium maltotriosemethylcarboxylate Functionalized with 2-[(2-dodecanoylamino-6-dodecanoylamino)hexanoylamino]ethanamine [Compound 20]
Serum albumin (BSA)
  Result F/F0 <0.5: YES

## Sodium maltotriosemethylcarboxylate Functionalized with cholesteryl leucinate [Compound 13]
lysozyme
  Turbidity of the solutions at the molar ratio 0.1: 32 NTU
  Turbidity of the solutions at the molar ratio 0.5: 395 NTU
  turbidity of the compound/lysozyme solution compared with the counterexample/lysozyme solutions: lower
